Assay results reported in patent US20040014639A1, “Product and method for control of obesity” (priority 2000, published 2004).
Entries after “also recorded” stand apart in the source; their conditions may differ.

Assays:
adipocytes = assay: sensitisation of adipocytes to beta 3 agonist: 4 hour pre-incubation, then BRL 37344 for a further hour, lipolysis; type: cell-based, mouse; conditions: for lipolytic effect of the beta 3 agonist after pre-incubation: 4 hour pre-incubation at varying concentrations, then 50 nanomolar BRL 37344 for a further hour
Protocol: Referring now to FIG. 2, an experiment was performed to determine whether hGH (FIG. 2A) or AOD 9604 (FIG. 2B) sensitises the adipocytes to the actions of the beta 3 agonists. First, the adipocytes were incubated with hGH or AOD 9604 at varying concentrations for four hours. The cells were then further incubated with a half-maximal concentration of BRL 37344 of 50 nanomolar for a further hour.

beta 3 messenger RNA [1] = assay: beta 3 messenger RNA expression after chronic treatment of ob/ob mice; type: in vivo; conditions: versus control ob/ob mice
C57Bl/6J (Ob/Ob) mouse = conditions: by injection; cited from earlier work
beta 3 messenger RNA [2] = assay: beta 3 messenger RNA expression in adipocytes after four-hour incubation (PCR/RT-PCR, normalised to β-actin); type: cell-based, mouse; conditions: 4 hour incubation
Protocol: Referring now to FIG. 3, the effect of the four-hour incubation of the adipocytes with hGH (FIG. 3A) or AOD 9604 (FIG. 3B) at two concentrations on expression of beta 3 messenger RNA was assessed using PCR/RT-PCR analysis of the content of beta 3 messenger RNA, using β-actin to normalise the data.

3T3-F442 cells = assay: in vitro lipolysis (glycerol release), 1 hour incubation; type: cell-based, mouse; conditions: for shape of lipolytic dose response: 1 hour, varying concentrations, agent alone
Protocol: Referring now to FIG. 1, 3T3-F442 cells (an immortal mouse adipocyte cell line) were incubated for 1 hour with varying concentrations of the rodent beta 3 agonist BRL 37344. […] In a third sample, AOD 9604 and BRL 37344 were co-administered with varying concentrations of AOD 9604, together with the maximal concentration of 1 μM of the BRL 37344.

ob/ob mice = assay: fat mass after chronic treatment of ob/ob mice; type: in vivo
Excerpt: It is believed that the obesity reducing effect of AOD9604 is at least in part a result of this sensitisation to the lipolytic affects of endogenous catecholamines (ie. epinephrine). Accordingly, chronic co-administration of AOD9604 and a beta 3 agonist will enhance the anti-obesity action of either agent administered alone.

[3] = target: beta 3 adrenergic receptor (Mus musculus, UniProt P25962); assay: agonism at the beta 3 adrenergic receptor
Sequence of beta 3 adrenergic receptor (P25962 whole entry): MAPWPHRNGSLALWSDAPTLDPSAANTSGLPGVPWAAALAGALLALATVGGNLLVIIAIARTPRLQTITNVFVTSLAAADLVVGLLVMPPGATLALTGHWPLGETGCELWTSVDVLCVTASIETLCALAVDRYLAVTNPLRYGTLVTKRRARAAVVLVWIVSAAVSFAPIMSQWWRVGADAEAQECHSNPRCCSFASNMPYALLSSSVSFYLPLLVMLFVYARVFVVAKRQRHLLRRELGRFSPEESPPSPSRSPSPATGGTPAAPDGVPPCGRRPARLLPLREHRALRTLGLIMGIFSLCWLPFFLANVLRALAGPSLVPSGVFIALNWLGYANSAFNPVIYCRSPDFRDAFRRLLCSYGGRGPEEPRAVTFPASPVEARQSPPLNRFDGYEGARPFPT

hGH: human growth hormone
lipolytic effect of the beta 3 agonist after pre-incubation (adipocytes): synergistic effect; also recorded: enhanced
beta 3 messenger RNA in brown adipocytes (beta 3 messenger RNA [1]; 1.0 mg/kg/day for 14 days): increase
beta 3 messenger RNA in white adipocytes (beta 3 messenger RNA [1]; 1.0 mg/kg/day for 14 days): increase

hGH 177-191: synthetic peptide corresponding to amino acid residues 177-191 of the human growth hormone sequence (LRIVQCRSVEGSCGF; UniProt P01241 203-217, looked up, fragment)
adipose tissue mass (C57Bl/6J (Ob/Ob) mouse): reduce
body weight gain (C57Bl/6J (Ob/Ob) mouse): reduce

Tyr-hGH 177-191 [AOD9604]
lipolytic effect of the beta 3 agonist after pre-incubation (adipocytes): synergistic effect; also recorded: enhanced
expression of beta 3 messenger RNA (beta 3 messenger RNA [2]): increase
shape of lipolytic dose response (3T3-F442 cells): bell-shaped acute lipolytic response
beta 3 messenger RNA in brown adipocytes (beta 3 messenger RNA [1]; 0.25 mg/kg/day for 14 days): increase
beta 3 messenger RNA in white adipocytes (beta 3 messenger RNA [1]; 0.25 mg/kg/day for 14 days): increase
fat mass of the treated animals (ob/ob mice): significant reduction
agonist activity at the beta 3 adrenergic receptor [3]: not an agonist

C[C@H](Cc1ccc(OCC(=O)O)cc1)NC[C@H](O)c1cccc(Cl)c1 [BRL 37344]
EC50 (adipocytes; adipocytes, read-out: half-maximal concentration (lipolysis)): 50 nM
concentration giving maximal lipolytic effect (3T3-F442 cells; 1 hour incubation): 1 µM
maximal effect, glycerol released (3T3-F442 cells; 1 hour incubation, at 1 μM): approximately 6 μM per milligram protein
shape of lipolytic dose response (3T3-F442 cells): sigmoid-shaped dose response
